Test results as given in patent US20220257529A1, “USE OF C[…] THE TREATMENT OF […] SPASMS” (GW Research Limited, priority 2019, published 2022).
“Also recorded” adds a separate entry of the source.

Tests used:
[1] = Open label, expanded-access program: caregiver logs of cognitive changes, behavioural changes and adverse events; format: in vivo, human
Description: (§1) Patients were administered botanically derived purified CBD in a 100 mg/mL sesame oil-based solution at an initial dose of five milligrams per kilogram per day (mg/kg/day) in two divided doses. Dose was then increased weekly by 5 mg/kg/day to a goal of 25 mg/kg/day.
(§2) A maximum dose of 50 mg/kg/day could be utilised for patients who were tolerating the medication but had not achieved seizure control; these patients had further weekly titration by 5 mg/kg/day.
During subsequent follow-up visits, parents provided weekly logs regarding cognitive changes, behavioural changes, and adverse events while taking CBD. Additionally, subjects had electroencephalogram (EEG) testing prior to and after the initiation of CBD.

[2] = system: refractory epileptic spasms (ES); assay: Open label, expanded-access program: epileptic spasm frequency relative to baseline (caregiver diary); format: in vivo, human; details: for Percent Change in Spasm Frequency, Average: average of nine patients; for Percent Change in Spasm Frequency at CBD dose, Average: average of patients
Description: Subjects were required to be on one or more AEDs at stable doses for a minimum of two weeks prior to baseline and to have stable vagus nerve stimulation (VNS) settings and ketogenic diet ratios for a minimum of four weeks prior to baseline.
as §1, §2
There were nine patients in this study, and each received CBD for at least 12 months. Modifications were made to concomitant AEDs as per clinical indication.
(§3) Seizure frequency, intensity, and duration were recorded by caregivers in a diary during a baseline period of at least 28 days. Changes in seizure frequency relative to baseline were calculated after 2 weeks and 1, 2, 3, 4, 6, 9 and 12 months of treatment. Epileptic spasms were counted by clusters.
Patients were defined as responders if they had more than 50% reduction in seizure frequency compared to baseline. […] The percent change in seizure frequency was calculated as follows: […]
The percent change reported at each time interval reflects reported seizure frequency over the past month relative to baseline. The EEG findings were correlated to the corresponding month seizure frequency change as well as the baseline seizure frequency.

[3] = system: other seizure types (tonic-clonic seizures); assay: Open label, expanded-access program: other seizure types; format: in vivo, human
Description: as §1, §3

epileptic spasms [4] = assay: Treatment history of enrolled patients before CBD; format: in vivo, human; details: before initiation of CBD treatment
epileptic spasms [5] = details: first-line treatment of epileptic spasms; cited from earlier work

With `C=C(C)[C@@H]1CCC(C)=C[C@H]1c1c(O)cc(CCCCC)cc1O` [CBD, cannabidiol] the “patients with caregiver-reported sustained improvements in alertness, verbal capacity and communications, cognitive availability, initiation of emotional and physical connections” value ([1]; four of nine patients) was 44%, the “adverse event leading to dose reduction” value ([1]; patients 3 and 6 at 45 mg/kg/day and 50 mg/kg/day, reduced to 35 mg/kg/day) was “diarrhoea” and the “improvement in cognitive and behavioural domains (in words)” value ([1]; treatment group of the program) was “significant improvement in cognitive and behavioural domains”. For the same compound, the “Responder rate at CBD dose” value ([2]; 10 mg/kg/day) was 66.70%, the “Responder rate at CBD dose” value ([2]; 20 mg/kg/day) was 77.80% and the “Responder rate at CBD dose” value ([2]; 25 mg/kg/day) was 66.70%. The “Responder rate at CBD dose” value ([2]; 35 mg/kg/day) was 57.10%, the “Responder rate at CBD dose” value ([2]; 45 mg/kg/day) was 80.00% and the “Responder rate at CBD dose” value ([2]; 50 mg/kg/day) was 83.30%. For the same compound, the “Responder Rate (percent of patients with a greater than 50% reduction in spasm frequency)” value ([2]; 1 month of treatment) was 77.8%, the “Responder Rate (percent of patients with a greater than 50% reduction in spasm frequency)” value ([2]; 2 months of treatment) was 66.7% and the “Responder Rate (percent of patients with a greater than 50% reduction in spasm frequency)” value ([2]; 2 weeks of treatment) was 66.7%. The “Responder Rate (percent of patients with a greater than 50% reduction in spasm frequency)” value ([2]; 3 months of treatment) was 55.6%, the “Responder Rate (percent of patients with a greater than 50% reduction in spasm frequency)” value ([2]; 6 months of treatment) was 77.8% and the “Responder Rate (percent of patients with a greater than 50% reduction in spasm frequency)” value ([2]; 9 months of treatment) was 77.8%. The “Responder Rate (percent of patients with a greater than 50% reduction in spasm frequency)” value ([2]; 12 months of treatment) was 77.8%, the patients spasm-free ([2]; after 12 months of treatment, five of nine patients) was 55.6% and the patients epileptic spasm-free ([2]; after one month of CBD treatment) was “One patient was epileptic spasm-free”. The patients epileptic spasm-free ([2]; after two months of CBD treatment) was “two other patients were epileptic spasm-free”, the “Percent Change in Spasm Frequency, Average” value ([2]; 1 month) was −67.20% and the “Percent Change in Spasm Frequency, Average” value ([2]; 2 months) was −64.10%. The “Percent Change in Spasm Frequency, Average” value ([2]; 2 weeks) was −67.50%, the “Percent Change in Spasm Frequency, Average” value ([2]; 3 months) was −59.00% and the “Percent Change in Spasm Frequency, Average” value ([2]; 6 months) was −73.70%. For the same compound, the “Percent Change in Spasm Frequency, Average” value ([2]; 9 months) was −61.53%, the “Percent Change in Spasm Frequency, Average” value ([2]; 12 months) was −51.35% and the “Percent Change in Spasm Frequency at CBD dose, Average” value (“Percent Change … at CBD dose, Average” below) ([2]; 10 mg/kg/day) was −67.50%. For the same compound, the “Percent Change … at CBD dose, Average” value ([2]; 20 mg/kg/day) was −67.20%, the “Percent Change … at CBD dose, Average” value ([2]; 25 mg/kg/day) was −61.40% and the “Percent Change … at CBD dose, Average” value ([2]; 35 mg/kg/day) was −56.00%. The “Percent Change … at CBD dose, Average” value ([2]; 45 mg/kg/day) was −80.90%, the “Percent Change … at CBD dose, Average” value ([2]; 50 mg/kg/day) was −50.20% and the “effect on number of epileptic spasms (in words)” value ([2]; overall conclusion of the program, adjunctive to AEDs) was “significantly reduce the number of epileptic spasms; also recorded: significant reduction in epileptic spasms”. For the same compound, the “seizure freedom in patients suffering from TSC” value ([2]; patients 6, 7 and 8, after 12 months of treatment) was “all three were completely seizure free”, the “freedom from tonic-clonic seizures” value ([3]; after starting CBD treatment) was “one patient became seizure free of tonic-clonic seizures” and the “frequency of other seizure types” value ([3]; other seizure types experienced by the patients) was “effective in reducing the frequency of other seizure types”.

For `C=CC(N)CCC(=O)O` (stereo not shown) [VGB, vigabatrin], the “outcome of treatment before CBD” value (epileptic spasms [4]) is given as “lack of efficacy” and the significant risks (epileptic spasms [5]) is given as “visual field defects”.

In the case of “Adrenocorticotropin hormone (SYSMEHFRWGKPVGKKRRPVKVYPNGAEDESAEAFPLEF; Corticotropin; UniProt P01189 138-176, looked up) [ACTH, preferred first-line treatment of epileptic spasms]”, the “outcome of treatment before CBD” value (epileptic spasms [4]) is listed as “without significant benefit” and the significant risks (epileptic spasms [5]) is listed as “increased risk of infection”.
